Measured values from patent US20240217957A1, “HETEROCYCLIC COMPOUND AND USE THEREOF” (TAKEDA PHARMACEUTICAL COMPANY LIMITED, priority 2022, published 2024).

These compounds were tested against T1, human OX2 receptor (Homo sapiens, UniProt O43614) (assay: Measurement of orexin type 2 receptor agonist activity (calcium fluorescence, Fluo-4 AM, FDSS)). Conditions: compound at 3 μM; CHO cells forcibly expressing human OX2 receptor; DMSO = 0%, 10 nM orexin A (human) = 100%.
T1 construct: expressed in transfected cells
T1 sequence (O43614 1-444): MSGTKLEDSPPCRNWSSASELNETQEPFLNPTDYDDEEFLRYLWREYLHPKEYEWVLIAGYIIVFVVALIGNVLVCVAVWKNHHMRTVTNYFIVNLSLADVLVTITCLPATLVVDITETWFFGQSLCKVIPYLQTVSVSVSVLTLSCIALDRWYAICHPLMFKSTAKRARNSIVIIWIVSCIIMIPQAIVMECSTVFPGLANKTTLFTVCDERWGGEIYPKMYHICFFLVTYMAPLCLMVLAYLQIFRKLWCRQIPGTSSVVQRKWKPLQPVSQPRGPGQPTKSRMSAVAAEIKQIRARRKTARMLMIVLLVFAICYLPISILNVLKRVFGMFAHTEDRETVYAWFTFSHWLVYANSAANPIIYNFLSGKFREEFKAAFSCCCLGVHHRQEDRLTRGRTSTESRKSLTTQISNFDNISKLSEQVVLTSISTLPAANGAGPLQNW
Type: cell-based
Protocol: In order to obtain cell clones that stably express human orexin type 2 receptor, human orexin type 2 (residues 1-444, NCBI Reference Sequence: AK314279) was constructed in a pcDNA3.1 (+) vector (Invitrogen) to express in mammalian cells. This plasmid DNA was transfected into CHO-K1 cells by electroporation, and stable clones were obtained by limiting dilution using resistance to G418 as a selection marker.
CHO cells in which human OX2 receptor was forcibly expressed were seeded at 10,000 cells/well into a 384-well black transparent bottom plate (BD falcon), and were incubated at 37° C., 5% CO2 for 1 day after incubation at room temperature for 30 minutes. After removing the cell plate medium, assay buffer containing calcium indicator A (HBSS (Thermo Fisher Scientific), 20 mM HEPES (Thermo Fisher Scientific), 0.1% BSA (Sigma-Aldrich), 2.5 μg/mL Fluo-4 AM (Dojin Kagaku), 0.08% Pluronic F127 (Dojin Kagaku), 1.25 mM probenecid (Dojin Kagaku)) was added at 30 μL/well. After incubation in a 5% CO2 incubator at 37° C. for 30 minutes, it was incubated at room temperature for another 30 minutes. Add 10 μL/well of the test compound diluted with assay buffer B (HBSS, 20 mM HEPES, 0.1% BSA), and use FDSS uCELL (Hamamatsu Photonics) to measure the fluorescence value every 1 second for 1 minute, and then every 2 seconds for […]. It was measured for 1 minute and 40 seconds. The amount of fluorescence value when DMSO is added instead of the test compound is defined as 0%, and the amount of fluorescence value when orexin A (human) (Peptide Institute) with a final concentration of 10 nM is added is defined as 100%. The activity (%) of the test compound was calculated.

SMILES	OX2R agonist activity (3 μM, %) [%]
Cc1cnc([C@@H]2CC(N3C[C@H](F)[C@H](NS(=O)(=O)C(F)F)C3)=NO2)c(-c2c(F)cccc2F)c1 [Example 81, N-[(3R,4S)-1-{(5S)-5-[3-(2,6-difluorophenyl)-5-methylpyridin-2-yl]-4,5-dihydro-1,2-oxazol-3-yl}-4-fluoropyrrolidin-3-yl]-1,1-difluoromethanesulfonamide]	100
CS(=O)(=O)N[C@@H]1CN(C2=NOC(c3ncc(Cl)cc3-c3c(F)cc(F)cc3F)C2)C[C@@H]1F (stereo partly drawn) [Example 112, N-[(3R,4S)-1-{5-[5-chloro-3-(2,4,6-trifluorophenyl)pyridin-2-yl]-4,5-dihydro-1,2-oxazol-3-yl}-4-fluoropyrrolidin-3-yl]methanesulfonamide]	98
CCS(=O)(=O)NC[C@@H]1CCCN1C1=NOC(c2ncc(C)cc2-c2c(F)cccc2F)C1 (stereo partly drawn) [Example 26, N-{[(2S)-1-{5-[3-(2,6-difluorophenyl)-5-methylpyridin-2-yl]-4,5-dihydro-1,2-oxazol-3-yl}pyrrolidin-2-yl]methyl}ethanesulfonamide]	42
CCS(=O)(=O)N[C@@H]1CN(C2=NO[C@H](c3ncc(C)cc3-c3c(F)cc(F)cc3F)C2)C[C@@H]1F [Example 92, N-[(3R,4S)-4-fluoro-1-{(5S)-5-[5-methyl-3-(2,4,6-trifluorophenyl)pyridin-2-yl]-4,5-dihydro-1,2-oxazol-3-yl}pyrrolidin-3-yl]ethanesulfonamide]	92
CCS(=O)(=O)N[C@@H]1CN(C2=NOC(c3ncc(Cl)cc3-c3c(F)cc(F)cc3F)C2)CC1(F)F (stereo partly drawn) [Example 42, N-[(3R)-1-{5-[5-chloro-3-(2,4,6-trifluorophenyl)pyridin-2-yl]-4,5-dihydro-1,2-oxazol-3-yl}-4,4-difluoropyrrolidin-3-yl]ethanesulfonamide]	100
Cc1cnc([C@@H]2CC(N3C[C@@H](NS(C)(=O)=O)[C@@](C)(F)C3)=NO2)c(-c2c(F)cc(F)cc2F)c1 (single isomer, unassigned) [Example 75, optical isomer of N-[(3R,4S)-4-fluoro-4-methyl-1-{(5S)-5-[5-methyl-3-(2,4,6-trifluorophenyl)pyridin-2-yl]-4,5-dihydro-1,2-oxazol-3-yl}pyrrolidin-3-yl]methanesulfonamide or N-[(3S,4R)-4-fluoro-4-methyl-1-{(5S)-5-[5-methyl-3-(2,4,6-trifluorophenyl)pyridin-2-yl]-4,5-dihydro-1,2-oxazol-3-yl}pyrrolidin-3-yl]methanesulfonamide]	105
CS(=O)(=O)N[C@H]1CCN(C2=NOC(c3ccccc3-c3c(F)cccc3F)C2)C1 (stereo partly drawn) [Example 1, N-{(3S)-1-[5-(2′,6′-difluoro[1,1′-biphenyl]-2-yl)-4,5-dihydro-1,2-oxazol-3-yl]pyrrolidin-3-yl}methanesulfonamide]	103
CS(=O)(=O)N[C@@H]1CN(C2=NOC(CO)(c3ncc(F)cc3-c3c(F)cc(F)cc3F)C2)CC1(F)F (stereo partly drawn) [Example 15, N-[(3R)-4,4-difluoro-1-{5-[5-fluoro-3-(2,4,6-trifluorophenyl)pyridin-2-yl]-5-(hydroxymethyl)-4,5-dihydro-1,2-oxazol-3-yl}pyrrolidin-3-yl]methanesulfonamide]	92
COc1cccc(F)c1-c1cc(C)cc(F)c1C1CC(N2C[C@@H](NS(C)(=O)=O)C(F)(F)C2)=NO1 (stereo partly drawn) [Example 175, N-{(3R)-1-[5-(2′,3-difluoro-6′-methoxy-5-methyl[1,1′-biphenyl]-2-yl)-4,5-dihydro-1,2-oxazol-3-yl]-4,4-difluoropyrrolidin-3-yl}methanesulfonamide]	112
O=S(=O)(CF)N[C@@H]1CN(C2=NO[C@H](c3ncc(F)cc3-c3c(F)cc(F)cc3F)C2)CC1(F)F [Example 128, N-[(3R)-4,4-difluoro-1-{(5S)-5-[5-fluoro-3-(2,4,6-trifluorophenyl)pyridin-2-yl]-4,5-dihydro-1,2-oxazol-3-yl}pyrrolidin-3-yl]-1-fluoromethanesulfonamide]	105
CS(=O)(=O)N[C@@H]1CN(C2=NOC(c3c(F)ccc(F)c3-c3c(F)cccc3F)C2)C[C@@H]1F (stereo partly drawn) [Example 159, N-{(3R,4S)-4-fluoro-1-[5-(2′,3,6,6′-tetrafluoro[1,1′-biphenyl]-2-yl)-4,5-dihydro-1,2-oxazol-3-yl]pyrrolidin-3-yl}methanesulfonamide]	99
Cc1cnc([C@@H]2CC(N3C[C@@H](NS(=O)(=O)C4CC4)C(F)(F)C3)=NO2)c(-c2c(F)cc(F)cc2F)c1 [Example 55, N-[(3R)-4,4-difluoro-1-{(5S)-5-[5-methyl-3-(2,4,6-trifluorophenyl)pyridin-2-yl]-4,5-dihydro-1,2-oxazol-3-yl}pyrrolidin-3-yl]cyclopropanesulfonamide]	104
CS(=O)(=O)N[C@@H]1CN(C2=NOC(c3c(F)cc(F)cc3-c3c(F)cccc3F)C2)CC1(F)F (stereo partly drawn) [Example 156, N-{(3R)-4,4-difluoro-1-[5-(2′,3,5,6′-tetrafluoro[1,1′-biphenyl]-2-yl)-4,5-dihydro-1,2-oxazol-3-yl]pyrrolidin-3-yl}methanesulfonamide]	94
CN(C)S(=O)(=O)N[C@H]1CCN(C2=NOC(c3ncccc3-c3c(F)cc(F)cc3F)C2)C1 (stereo partly drawn) [Example 35, N,N-dimethyl-N′-[(3S)-1-{5-[3-(2,4,6-trifluorophenyl)pyridin-2-yl]-4,5-dihydro-1,2-oxazol-3-yl}pyrrolidin-3-yl]sulfuric diamide]	92
CC1(c2ncc(F)cc2-c2c(F)cccc2F)CC(N2C[C@@H](NS(C)(=O)=O)C(F)(F)C2)=NO1 (stereo partly drawn) [Example 158, N-[(3R)-1-{5-[3-(2,6-difluorophenyl)-5-fluoropyridin-2-yl]-5-methyl-4,5-dihydro-1,2-oxazol-3-yl}-4,4-difluoropyrrolidin-3-yl]methanesulfonamide]	100
CCS(=O)(=O)N[C@@H]1CN(C2=NOC(COC)(c3ncc(F)cc3-c3c(F)cccc3F)C2)C[C@@H]1F (stereo partly drawn) [Example 132, N-[(3R,4S)-1-{5-[3-(2,6-difluorophenyl)-5-fluoropyridin-2-yl]-5-(methoxymethyl)-4,5-dihydro-1,2-oxazol-3-yl}-4-fluoropyrrolidin-3-yl]ethanesulfonamide]	110
Cc1ccc([C@@H]2CC(N3CC[C@H](NS(C)(=O)=O)C3)=NO2)c(-c2ncc(F)cc2F)c1 [Example 50, N-[(3S)-1-{5-[2-(3,5-difluoropyridin-2-yl)-4-methylphenyl]-4,5-dihydro-1,2-oxazol-3-yl}pyrrolidin-3-yl]methanesulfonamide]	99
Cc1cnc(C2CC([C@H]3CC[C@H](NS(C)(=O)=O)C3)=NO2)c(-c2c(F)cc(F)cc2F)c1 (stereo partly drawn) [Example 25, N-[(1S,3S)-3-{5-[5-methyl-3-(2,4,6-trifluorophenyl)pyridin-2-yl]-4,5-dihydro-1,2-oxazol-3-yl}cyclopentyl]methanesulfonamide]	88
CS(=O)(=O)N[C@@H]1CN(C2=NOC(c3ccc(F)c(F)c3-c3c(F)cccc3F)C2)C[C@@H]1F (stereo partly drawn) [Example 137, N-{(3R,4S)-4-fluoro-1-[5-(2′,5,6,6′-tetrafluoro[1,1′-biphenyl]-2-yl)-4,5-dihydro-1,2-oxazol-3-yl]pyrrolidin-3-yl}methanesulfonamide]	102
Cc1cnc([C@@H]2CC(N3CC[C@H](NS(=O)(=O)C(C)F)C3)=NO2)c(-c2c(F)cccc2F)c1 (stereo partly drawn) [Example 99, N-[(3S)-1-{(5S)-5-[3-(2,6-difluorophenyl)-5-methylpyridin-2-yl]-4,5-dihydro-1,2-oxazol-3-yl}pyrrolidin-3-yl]-1-fluoroethane-1-sulfonamide]	101
Cc1cnc(C2CC(O[C@H]3C[C@@H](NS(C)(=O)=O)C3)=NO2)c(-c2c(F)cccc2F)c1 (stereo partly drawn) [Example 20, N-[(1s,3s)-3-({5-[3-(2,6-difluorophenyl)-5-methylpyridin-2-yl]-4,5-dihydro-1,2-oxazol-3-yl}oxy)cyclobutyl]methanesulfonamide]	65
